In assay [1] the test system is Strain G393-B445. The assay can be described thus: Antibiotic sensitivity, paper disc-agar diffusion method. The format is cell-based, Empedobacter sp. The arrangement: key: S (sensitive); R (resistant); I (intermediate). The settings on record: nutrient agar, 2 day's incubation at 28° C., Difco discs, amount/disc per antibiotic. In general terms: Agar diffusion results depend on both activity and mobility in agar.

Assay [2] has as its system E. coli NIHJ. The description is as above. It is filed as cell-based. The arrangement: key: S (sensitive); R (resistant); I (intermediate). The settings on record: nutrient agar, 2 day's incubation at 28° C., Difco discs, amount/disc per antibiotic.
Assay [3] has as its system S. aureus 209P. The description is as above. The format is cell-based. The arrangement: key: S (sensitive); R (resistant); I (intermediate). The following applies: nutrient agar, 2 day's incubation at 28° C., Difco discs, amount/disc per antibiotic.
In assay [4] the test system is Staphylococcus aureus 209P. The assay can be described thus: MIC, serial two-fold dilution method (aerobic). The format is cell-based. The settings on record: Staphylococcus aureus 209P; Mueller-Hinton agar; inoculum 10^4; read-out: minimum inhibitory concentration (MIC).
The subject of assay [5] is Staphylococcus aureus Smith. The assay can be described thus: MIC, serial two-fold dilution method (aerobic). The format is cell-based. The settings on record: Staphylococcus aureus Smith; Mueller-Hinton agar; inoculum 10^4; read-out: minimum inhibitory concentration (MIC).
Assay [6] has as its system Staphylococcus aureus #193. The assay can be described thus: MIC, serial two-fold dilution method (aerobic). The settings on record: Staphylococcus aureus #193; Mueller-Hinton agar; inoculum 10^4; read-out: minimum inhibitory concentration (MIC). The format is cell-based.
The subject of assay [7] is Staphylococcus aureus BX-1633. The assay can be described thus: MIC, serial two-fold dilution method (aerobic). The settings on record: BX1633; Staphylococcus aureus BX-1633; Mueller-Hinton agar; inoculum 10^4; read-out: minimum inhibitory concentration (MIC). The format is cell-based.
For assay [8], the system named is Staphylococcus aureus A9601. The assay can be described thus: MIC, serial two-fold dilution method (aerobic). The format is cell-based. The settings on record: Staphylococcus aureus A9601; Mueller-Hinton agar; inoculum 10^4; read-out: minimum inhibitory concentration (MIC).
The test system of assay [9] is Staphylococcus aureus A9748. Nature of the assay: MIC, serial two-fold dilution method (aerobic). It is filed as cell-based. The settings on record: Staphylococcus aureus A9748; Mueller-Hinton agar; inoculum 10^4; read-out: minimum inhibitory concentration (MIC).
Assay [10] concerns Staphylococcus aureus A9856. Nature of the assay: MIC, serial two-fold dilution method (aerobic). It is filed as cell-based. The settings on record: Staphylococcus aureus A9856; Mueller-Hinton agar; inoculum 10^4; read-out: minimum inhibitory concentration (MIC).
The test system of assay [11] is Staphylococcus aureus A20239. The assay can be described thus: MIC, serial two-fold dilution method (aerobic). It is filed as cell-based. The following applies: Staphylococcus aureus A20239; Mueller-Hinton agar; inoculum 10^4; read-out: minimum inhibitory concentration (MIC).
Assay [12] concerns Staphylococcus aureus A20394. The assay can be described thus: MIC, serial two-fold dilution method (aerobic). The settings on record: Staphylococcus aureus A20394; Mueller-Hinton agar; inoculum 10^4; read-out: minimum inhibitory concentration (MIC). The format is cell-based.
Assay [13] concerns Staphylococcus aureus A20610. Nature of the assay: MIC, serial two-fold dilution method (aerobic). The format is cell-based. The settings on record: Staphylococcus aureus A20610; Mueller-Hinton agar; inoculum 10^4; read-out: minimum inhibitory concentration (MIC).
The subject of assay [14] is Staphylococcus aureus A20701. Nature of the assay: MIC, serial two-fold dilution method (aerobic). The format is cell-based. The settings on record: Staphylococcus aureus A20701; Mueller-Hinton agar; inoculum 10^4; read-out: minimum inhibitory concentration (MIC).
In assay [15] the test system is Staphylococcus aureus A22421. Nature of the assay: MIC, serial two-fold dilution method (aerobic). The settings on record: Staphylococcus aureus A22421; Mueller-Hinton agar; inoculum 10^4; read-out: minimum inhibitory concentration (MIC). The format is cell-based.
The subject of assay [16] is Sarcina lutea PCI-1001. The assay can be described thus: MIC, serial two-fold dilution method (aerobic). The following applies: Micrococcus luteus, PCI1001; Sarcina lutea PCI-1001; Mueller-Hinton agar; inoculum 10^4; read-out: minimum inhibitory concentration (MIC). The format is cell-based.
The subject of assay [17] is Micrococcus flavus D-12. Nature of the assay: MIC, serial two-fold dilution method (aerobic). The format is cell-based. The settings on record: D12; Micrococcus flavus D-12; Mueller-Hinton agar; inoculum 10^4; read-out: minimum inhibitory concentration (MIC).
Assay [18] has as its system Bacillus anthracis IID-115. Nature of the assay: microbe, parasite or virus in culture. It is filed as cell-based. The following applies: Bacillus anthracis, IID115, read-out: minimum inhibitory concentration (MIC).
Assay [19] deals with Bacillus subtilis ATCC 6633. The assay can be described thus: MIC, serial two-fold dilution method (aerobic). It is filed as cell-based. The settings on record: ATCC6633; Bacillus subtilis ATCC 6633; Mueller-Hinton agar; inoculum 10^4; read-out: minimum inhibitory concentration (MIC).
Assay [20] has as its system Escherichia coli NIHJ. The assay can be described thus: MIC, serial two-fold dilution method (aerobic). The following applies: Escherichia coli NIHJ; Mueller-Hinton agar; inoculum 10^4; read-out: minimum inhibitory concentration (MIC). The format is cell-based.
Assay [21] deals with Klebsiella pneumoniae D-11. Nature of the assay: MIC, serial two-fold dilution method (aerobic). The following applies: D11; Klebsiella pneumoniae D-11; Mueller-Hinton agar; inoculum 10^4; read-out: minimum inhibitory concentration (MIC). It is filed as cell-based.
In assay [22] the test system is Proteus mirabilis A9554. The assay can be described thus: MIC, serial two-fold dilution method (aerobic). The following applies: Proteus mirabilis A9554; Mueller-Hinton agar; inoculum 10^4; read-out: minimum inhibitory concentration (MIC). It is filed as cell-based.
The test system of assay [23] is Proteus vulgaris A9436. The assay can be described thus: MIC, serial two-fold dilution method (aerobic). The format is cell-based. The following applies: Proteus vulgaris A9436; Mueller-Hinton agar; inoculum 10^4; read-out: minimum inhibitory concentration (MIC).
Assay [24] relates to Pseudomonas aeruginosa D-113. The assay can be described thus: MIC, serial two-fold dilution method (aerobic). It is filed as cell-based. The following applies: D113; Pseudomonas aeruginosa D-113; Mueller-Hinton agar; inoculum 10^4; read-out: minimum inhibitory concentration (MIC).

Values after ≈ are worked out from the molar mass of the structure shown. *1 amine or outer side, *2 acyl side, *3 side chain or, on linkers, in order; H or OH if unused. Where a SMILES comes first, the peptide text is derived from it. Bridges are numbered along the chain shown (N, C = ends). Roman numbers before positions name the chains, in order. [ ]: non-standard residue; d: D form. Actinocin(9to1) = Cc1c2oc3c(C)ccc(C(=O)[*:1])c3nc-2c(C(=O)[*:2])c(N)c1=O; NMeV = CN[C@H](C(=O)O)C(C)C; Sar = CNCC(=O)O Where only a bound is given, the exact number is not on record here.

As to `CC1(C)S[C@@H]2[C@H](NC(=O)Cc3ccccc3)C(=O)N2[C@H]1C(=O)O` [Pencillin G], in assay [1], the “Sensitivity Strain G393-B445” value is listed as “S”. In addition, the “Sensitivity E. coli NIHJ” value in assay [2] is “I”. Also, in assay [3], the “Sensitivity S. aureus 209P” value is listed as “S”.
On to `CN(C)[C@@H]1C(O)=C(C(N)=O)C(=O)[C@@]2(O)C(O)=C3C(=O)c4c(O)cccc4[C@@](C)(O)[C@H]3C[C@@H]12` [Tetracycline], for which, in assay [1], the “Sensitivity Strain G393-B445” value was “S”. Also, the “Sensitivity E. coli NIHJ” value in assay [2] is recorded as “S”. Moreover, the “Sensitivity S. aureus 209P” value in assay [3] is recorded as “S”.
Take Polymyxin B: the “Sensitivity Strain G393-B445” value in [1] is listed as “R”. Also, the “Sensitivity E. coli NIHJ” value in assay [2] is reported as “R”. Besides, the “Sensitivity S. aureus 209P” value in assay [3] is “R”.
Regarding `NC[C@H]1O[C@H](O[C@H]2[C@H](O)[C@@H](O[C@H]3O[C@H](CO)[C@@H](O)[C@H](N)[C@H]3O)[C@H](N)C[C@@H]2N)[C@H](O)[C@@H](O)[C@@H]1O` [Kanamycin], the MIC is 0.4 µg/mL (≈ 0.826 µM) in assay [4]; 0.4 µg/mL (≈ 0.826 µM) in assay [5]; 0.8 µg/mL (≈ 1.65 µM) in [6]; 0.8 µg/mL (≈ 1.65 µM) in [7]; 0.4 µg/mL (≈ 0.826 µM) in assay [8]; 1.6 µg/mL (≈ 3.3 µM) in assay [9]. The MIC was 0.8 µg/mL (≈ 1.65 µM) in [10]; greater than 100 µg/mL in assay [11]; 0.8 µg/mL (≈ 1.65 µM) in assay [12]; 100 µg/mL (≈ 206 µM) in [13]; 100 µg/mL (≈ 206 µM) in assay [14]; greater than 100 µg/mL in assay [15]. Moreover, the MIC in assay [16] came to 3.1 µg/mL (≈ 6.4 µM); in assay [17], 3.1 µg/mL (≈ 6.4 µM); in assay [18], 0.4 µg/mL (≈ 0.826 µM); in [19], 0.2 µg/mL (≈ 0.413 µM); in assay [20] it was 0.8 µg/mL (≈ 1.65 µM); in [21], 0.2 µg/mL (≈ 0.413 µM). Also, the MIC in [22] was 0.4 µg/mL (≈ 0.826 µM); in assay [23] it was 0.4 µg/mL (≈ 0.826 µM); in [24], greater than 100 µg/mL.
With `Cc1c2oc3c(C)ccc(C(=O)N[C@@H]4C(=O)N[C@H](C(C)C)C(=O)N5CCC[C@H]5C(=O)N(C)CC(=O)N(C)[C@@H](C(C)C)C(=O)O[C@@H]4C)c3nc-2c(C(=O)N[C@@H]2C(=O)N[C@H](C(C)C)C(=O)N3CCC[C@H]3C(=O)N(C)CC(=O)N(C)[C@@H](C(C)C)C(=O)O[C@@H]2C)c(N)c1=O` [Actinomycin D] (I: T[dV]P[Sar][NMeV] / II: T[dV]P[Sar][NMeV]; ester I:1-I:C, II:1-II:C; linker I:N-II:N via Actinocin(9to1)), the “Sensitivity Strain G393-B445” value in assay [1] is reported as “I”. In addition, the “Sensitivity E. coli NIHJ” value in [2] is “R”. The “Sensitivity S. aureus 209P” value in assay [3] is on record as “S”.
Turning to `[H]/N=C(/N)N[C@H]1[C@H](O)[C@@H](O)[C@H](O[C@@H]2O[C@@H](C)[C@](O)(C=O)[C@H]2O[C@@H]2O[C@@H](CO)[C@H](O)[C@@H](O)[C@@H]2NC)[C@@H](N/C(N)=N\[H])[C@@H]1O` [Streptomycin], the “Sensitivity Strain G393-B445” value in assay [1] is “S”. The “Sensitivity E. coli NIHJ” value in [2] is “I”. Besides, the “Sensitivity S. aureus 209P” value in assay [3] is reported as “I”.

The values are drawn from US4409210A, “Antibiotic compound” (priority 1982, dated 1983).
